Article PMC10002493, “Direct Oral FXa Inhibitors Binding to Human Serum Albumin: Spectroscopic, Calorimetric, and Computational Studies” (International Journal of Molecular Sciences, 2023)
Where a name gives a salt, the structure may show the parent alone. Read-outs that look alike come from different tables or passages of the source.

Key:
[1] = Aqueous solubility observed in preparing ITC solutions; format: physicochemical; conditions: also with solvent mixtures that included ethanol and DMSO, prevented ITC data
Protocol: (§1) ITC analyses were performed in phosphate buffer, 10 mM, pH = 7.4. […] Lower ionization enthalpy reduces heat signals associated with proton-exchange reactions between the buffer and the ligand/host system during complex formation. […] A plot of the heat released per mole of HSA as a function of the molar ratio of the solution ([HSA]/[anticoagulant]) is shown at the foot of each figure. […] Control titrations were performed (drug over buffer) and subtracted from each analysis before the fitting.
(§2) ITC data were obtained using a MicroCal PEAQ-ITC instrument (Malvern Panalytical). […] Working solutions were prepared using aliquots of the stock solutions of anticoagulants diluted in phosphate buffer, 10 mM, pH = 7.4. […] The first injection was 0.40 μL, followed by 12 injections of 3.0 μL. Reference power was set to 5 μcal/s, 500 rpm stirring speed, initial delay of 60 s, and injection spacing of 150 s. Titration curves were drawn in duplicate and the thermodynamic parameters were fitted to the one-site binding model using Microcal PEAQ-ITC analysis software. Controls were measured by recording the heat effects of the titrant over plain buffer and were subtracted from thermograms before fitting analysis. All the measurements were performed in duplicate.

HSA: heme-Fe(III) = tested on: HSA: heme-Fe(III); design: method as in PMID 32279215; conditions: pH 7.3, 20 °C, Phosphate 2.0 × 10^−2 M DMSO 10%, binding site IB, UV; cited from earlier work
[2] = tested on: T1, human serum albumin (HSA); assay: Steady-state fluorescence quenching of HSA (Stern–Volmer analysis); format: binding; conditions: for Ksv (Stern–Volmer constant): 0.10 M tris-HCl pH 7.4, 0.10 M NaCl, 2 µM HSA, 0–20 µM drug, λex 295 nm; for Ksv of salt compared to the neutral compound: 298 K and 310 K
T1 construct: purchased Sigma-Aldrich
Protocol: The fluorescence intrinsic to proteins is attributed to aromatic amino acid residues, such as tryptophan (Trp), phenylalanine (Phe), and tyrosine (Tyr). The fluorescence of HSA in particular can be traced back to its tyrosine and tryptophan residues, therefore the experiments were performed with an excitation wavelength of 295 nm, because tryptophan absorbs light in this range [33]. HSA has a single tryptophan residue (Trp-214) close to the Sudlow site I (subdomain IIA), responsible for the main fluorescence emission of the protein [34, 35]. Binding to this site induces fluorescence quenching, which is a very helpful tool to evaluate different drugs’ interactions with HSA.
Sample measurements were recorded in 0.10 M tris-HCl buffer pH 7.4 with 0.10 M NaCl, 2 µM HSA, 0–20 µM FXa inhibitors respectively (λex = 295 nm).
The quenching process of HSA can be described as static or dynamic. Static quenching occurs when HSA forms complexes with anticoagulants in the ground state, whereas dynamic quenching occurs via diffusion-controlled encounters in the excited state. Consequently, temperature affects the quenching processes in a different manner. The Stern–Volmer constant has a temperature dependence: Ksv in a dynamic process increases with temperature due to the necessity of successful diffusion and collision of the FXa inhibitors with the tryptophan residues of HSA. In a static quenching process, Ksv decreases with rising temperature, due to the diminished stability of the complex in the ground state. The quenching process of HSA can be analyzed by the Stern–Volmer equation, which provides helpful information regarding the binding process. Table 1 and Figure 4 summarize the Ksv of the HSA-FXa inhibitor complexes at 298 K and 310 K respectively. The Ksv of betrixaban and edoxaban were compared with their respective salts, betrixaban maleate (BEM) and edoxaban tosylate hydrate (EDT).
Fluorescence emission spectra were collected on a Perkin Elmer LS55 fluorimeter, using 5 nm bandwidths for excitation and emission. Samples were excited at 295 nm and 298 K or 310 K, respectively. Subsequently, HSA fluorescence was measured at 350 nm decreases, in the presence of different anticoagulants, corrected by the inner-filter effect using Equation (1) where Icorr and Iobs correspond to fluorescence corrected and obtained intensities, and Aex and Aem correspond to the absorbance at the excitation and emission wavelengths. The quenching data were evaluated using the Stern–Volmer Equation (2), where I0 and I are the fluorescence intensities of the HSA in the absence or presence of anticoagulants (Q, quenchers), and Ksv is the Stern–Volmer constant:(1) Icorr=Iobs×10^Aex+Aem/2 (2) I0/I=1+KsvQ

[3] = reversible protein–drug complexes; cited from earlier work
fatty-acid-free HSA = target: T2, fatty-acid-free HSA; assay: Isothermal titration calorimetry (ITC) of anticoagulants with HSA; design: species or system human; conditions: phosphate buffer 10 mM, pH 7.4, 298 K, one-site binding model
T2 construct: purchased Sigma-Aldrich
Protocol: as §1, §2

[4] = design: method as in PMID 32279215; conditions: rivaroxaban-treated patients; cited from earlier work
BSA = conditions: binding site IIA, FS, cited from earlier work
HSA fatty acid-free = tested on: HSA fatty acid-free; design: method as in PMID 29680174; conditions: Tris–HCl (0.10 M NaCl) DMSO 2%, FS, cited from earlier work

SMILES	aqueous solubility [1]	aqueous solubility ([1]; listed as edoxaban)	K (HSA: heme-Fe(III))	Ksv (Stern–Volmer constant) ([2]; 298 K)	Ksv (Stern–Volmer constant) ([2]; 310 K)	binding to plasma proteins [3]	KITC binding constant (fatty-acid-free HSA)	Ksv of salt compared to the neutral compound [2]	aqueous solubility ([1]; listed as rivaroxaban)	adjusted risk of bleeding per 1.0 g/dL incremental decrease in albumin [4]	K (BSA; pH 7.4, 25 °C, Phosphate DMSO 0.3%)	K (BSA; pH 7.4, 30 °C, Phosphate DMSO 0.3%)	K (BSA; pH 7.4, 35 °C, Phosphate buffer DMSO 0.3%)	K (HSA fatty acid-free; pH 7.4, 28 °C, binding site IIA)	K (HSA fatty acid-free; pH 7.4, 37 °C, binding site IB)	K (HSA fatty acid-free; pH 7.4, 45 °C, binding site IB)
CN1CCc2nc(C(=O)N[C@@H]3C[C@@H](C(=O)N(C)C)CC[C@@H]3NC(=O)C(=O)Nc3ccc(Cl)cn3)sc2C1 [ED, edoxaban]	poor aqueous solubility	low water solubility	769000 M⁻¹	1.60 ± 0.04 ×10^4 M^−1	1.28 ± 0.05 ×10^4 M^−1	55%										
COc1ccc(NC(=O)c2ccc(C(=N)N(C)C)cc2)c(C(=O)Nc2ccc(Cl)cn2)c1 [BEM, betrixaban maleate]				1.59±0.05 ×10^4 M^−1	1.36±0.03 ×10^4 M^−1		1600 M⁻¹	no significant differences								
O=C(NC[C@H]1CN(c2ccc(N3CCOCC3=O)cc2)C(=O)O1)c1ccc(Cl)s1 [RV, rivaroxaban]	poor aqueous solubility		455000 M⁻¹	1.56 ± 0.03 ×10^4 M^−1	0.98 ± 0.04 ×10^4 M^−1	95%			low water solubility	4.4 fold	132000 M⁻¹	18200 M⁻¹	4370 M⁻¹			
COc1ccc(-n2nc(C(N)=O)c3c2C(=O)N(c2ccc(N4CCCCC4=O)cc2)CC3)cc1 [AP, apixaban]			2.78e+06 M⁻¹	3.36 ± 0.03 ×10^4 M^−1	2.79 ± 0.02 ×10^4 M^−1		5560 M⁻¹							3410 M⁻¹	2460 M⁻¹	1670 M⁻¹
CN1CCc2nc(C(=O)N[C@@H]3C[C@@H](C(=O)N(C)C)CC[C@@H]3NC(=O)C(=O)Nc3ccc(Cl)cn3)sc2C1.Cc1ccc(S(=O)(=O)O)cc1.O [EDT, Edoxaban tosylate hydrate]	poor aqueous solubility			1.79±0.03 ×10^4 M^−1	1.27±0.02 ×10^4 M^−1			no significant differences								
COc1ccc(NC(=O)c2ccc(C(=N)N(C)C)cc2)c(C(=O)Nc2ccc(Cl)cn2)c1 [BE, betrixaban]	poor aqueous solubility		1.61e+06 M⁻¹	1.86 ± 0.03 ×10^4 M^−1	1.44 ± 0.04 ×10^4 M^−1											
